# Test results published in the supplement of paper PMC10307832.
# What was measured:
# Assay in all cases: relative viability (nuclei count vs DMSO), 5 days (fraction); higher = more cells survive
# Elesclomol + Trametinib = compound: CN(NC(=O)CC(=O)NN(C)C(=S)c1ccccc1)C(=S)c1ccccc1 [Elesclomol] + CC(=O)Nc1cccc(-n2c(=O)n(C3CC3)c(=O)c3c(Nc4ccc(I)cc4F)n(C)c(=O)c(C)c32)c1 [Trametinib] (partner 0.02 µM)
# In short: (§1)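 Five library-drug doses in √10 steps were combined with a fixed anchor-drug dose, or a single drug was given alone, by pin tool to lung cancer cell lines in 1536-well plates the day after seeding. Nuclei were stained and counted after 5 days. Relative viability is the nuclei count in treated wells over that in vehicle wells, taken as the median of duplicate plates.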
# Elesclomol + Pictilisib = compound: CN(NC(=O)CC(=O)NN(C)C(=S)c1ccccc1)C(=S)c1ccccc1 [Elesclomol] + CS(=O)(=O)N1CCN(Cc2cc3nc(-c4cccc5[nH]ncc45)nc(N4CCOCC4)c3s2)CC1 [Pictilisib] (partner 1 µM)
# In short: as §1
# Elesclomol + Crizotinib = compound: CN(NC(=O)CC(=O)NN(C)C(=S)c1ccccc1)C(=S)c1ccccc1 [Elesclomol] + C[C@@H](Oc1cc(-c2cnn(C3CCNCC3)c2)cnc1N)c1c(Cl)ccc(F)c1Cl [Crizotinib] (partner 1 µM)
# In short: as §1
# Elesclomol + AZD7762 = compound: CN(NC(=O)CC(=O)NN(C)C(=S)c1ccccc1)C(=S)c1ccccc1 [Elesclomol] + NC(=O)Nc1cc(-c2cccc(F)c2)sc1C(=O)N[C@H]1CCCNC1 [AZD7762] (partner 0.2 µM)
# In short: as §1
# Elesclomol + Olaparib = compound: CN(NC(=O)CC(=O)NN(C)C(=S)c1ccccc1)C(=S)c1ccccc1 [Elesclomol] + O=C(c1cc(Cc2n[nH]c(=O)c3ccccc23)ccc1F)N1CCN(C(=O)C2CC2)CC1 [Olaparib] (partner 8 µM)
# In short: as §1
cell line,measurement,setting,value
H3255,relative viability,Elesclomol + Trametinib; first compound 0.003162 µM,0.585
same,relative viability,Elesclomol + Trametinib; first compound 0.01 µM,0.532
same,relative viability,Elesclomol + Trametinib; first compound 0.03162 µM,0.328
same,relative viability,Elesclomol + Trametinib; first compound 0.1 µM,0.284
same,relative viability,Elesclomol + Pictilisib; first compound 0.003162 µM,0.433
same,relative viability,Elesclomol + Pictilisib; first compound 0.01 µM,0.336
same,relative viability,Elesclomol + Pictilisib; first compound 0.03162 µM,0.315
same,relative viability,Elesclomol + Pictilisib; first compound 0.1 µM,0.266
same,relative viability,Elesclomol + Crizotinib; first compound 0.003162 µM,0.967
same,relative viability,Elesclomol + Crizotinib; first compound 0.01 µM,0.459
same,relative viability,Elesclomol + Crizotinib; first compound 0.03162 µM,0.377
same,relative viability,Elesclomol + Crizotinib; first compound 0.1 µM,0.409
same,relative viability,Elesclomol + AZD7762; first compound 0.003162 µM,0.818
same,relative viability,Elesclomol + AZD7762; first compound 0.01 µM,0.773
same,relative viability,Elesclomol + AZD7762; first compound 0.03162 µM,0.584
same,relative viability,Elesclomol + AZD7762; first compound 0.1 µM,0.521
same,relative viability,Elesclomol + Olaparib; first compound 0.003162 µM,0.488
same,relative viability,Elesclomol + Olaparib; first compound 0.01 µM,0.456
same,relative viability,Elesclomol + Olaparib; first compound 0.03162 µM,0.482
same,relative viability,Elesclomol + Olaparib; first compound 0.1 µM,0.316
NCI-H441,relative viability,Elesclomol + Trametinib; first compound 0.003162 µM,0.498
same,relative viability,Elesclomol + Trametinib; first compound 0.01 µM,0.456
same,relative viability,Elesclomol + Trametinib; first compound 0.03162 µM,0.418
same,relative viability,Elesclomol + Trametinib; first compound 0.1 µM,0.0766
same,relative viability,Elesclomol + Pictilisib; first compound 0.003162 µM,0.424
same,relative viability,Elesclomol + Pictilisib; first compound 0.01 µM,0.364
same,relative viability,Elesclomol + Pictilisib; first compound 0.03162 µM,0.183
same,relative viability,Elesclomol + Pictilisib; first compound 0.1 µM,0.0824
same,relative viability,Elesclomol + Crizotinib; first compound 0.003162 µM,0.836
same,relative viability,Elesclomol + Crizotinib; first compound 0.01 µM,0.461
same,relative viability,Elesclomol + Crizotinib; first compound 0.03162 µM,0.286
same,relative viability,Elesclomol + Crizotinib; first compound 0.1 µM,0.113
same,relative viability,Elesclomol + AZD7762; first compound 0.003162 µM,1.14
same,relative viability,Elesclomol + AZD7762; first compound 0.01 µM,1.07
same,relative viability,Elesclomol + AZD7762; first compound 0.03162 µM,1.02
same,relative viability,Elesclomol + AZD7762; first compound 0.1 µM,0.203
same,relative viability,Elesclomol + Olaparib; first compound 0.003162 µM,0.48
same,relative viability,Elesclomol + Olaparib; first compound 0.01 µM,0.602
same,relative viability,Elesclomol + Olaparib; first compound 0.03162 µM,0.311
same,relative viability,Elesclomol + Olaparib; first compound 0.1 µM,0.148
CAL-12T,relative viability,Elesclomol + Trametinib; first compound 0.003162 µM,0.265
same,relative viability,Elesclomol + Trametinib; first compound 0.01 µM,0.139
same,relative viability,Elesclomol + Trametinib; first compound 0.03162 µM,0.113
same,relative viability,Elesclomol + Trametinib; first compound 0.1 µM,0.114
same,relative viability,Elesclomol + Pictilisib; first compound 0.003162 µM,0.521
same,relative viability,Elesclomol + Pictilisib; first compound 0.01 µM,0.146
same,relative viability,Elesclomol + Pictilisib; first compound 0.03162 µM,0.0826
same,relative viability,Elesclomol + Pictilisib; first compound 0.1 µM,0.0934
same,relative viability,Elesclomol + Crizotinib; first compound 0.003162 µM,0.5
same,relative viability,Elesclomol + Crizotinib; first compound 0.01 µM,0.0867
same,relative viability,Elesclomol + Crizotinib; first compound 0.03162 µM,0.0556
same,relative viability,Elesclomol + Crizotinib; first compound 0.1 µM,0.0701
same,relative viability,Elesclomol + AZD7762; first compound 0.003162 µM,0.622
same,relative viability,Elesclomol + AZD7762; first compound 0.01 µM,0.483
same,relative viability,Elesclomol + AZD7762; first compound 0.03162 µM,0.3
same,relative viability,Elesclomol + AZD7762; first compound 0.1 µM,0.17
same,relative viability,Elesclomol + Olaparib; first compound 0.003162 µM,0.64
same,relative viability,Elesclomol + Olaparib; first compound 0.01 µM,0.321
same,relative viability,Elesclomol + Olaparib; first compound 0.03162 µM,0.117
same,relative viability,Elesclomol + Olaparib; first compound 0.1 µM,0.0718
NCI-H1792,relative viability,Elesclomol + Trametinib; first compound 0.003162 µM,0.367
same,relative viability,Elesclomol + Trametinib; first compound 0.03162 µM,0.366
same,relative viability,Elesclomol + Trametinib; first compound 0.1 µM,0.267
same,relative viability,Elesclomol + Pictilisib; first compound 0.003162 µM,0.262
same,relative viability,Elesclomol + Pictilisib; first compound 0.01 µM,0.171
same,relative viability,Elesclomol + Pictilisib; first compound 0.03162 µM,0.3
same,relative viability,Elesclomol + Pictilisib; first compound 0.1 µM,0.357
same,relative viability,Elesclomol + Crizotinib; first compound 0.003162 µM,0.939
same,relative viability,Elesclomol + Crizotinib; first compound 0.01 µM,0.945
same,relative viability,Elesclomol + Crizotinib; first compound 0.03162 µM,1
same,relative viability,Elesclomol + Crizotinib; first compound 0.1 µM,1.01
same,relative viability,Elesclomol + AZD7762; first compound 0.003162 µM,0.666
same,relative viability,Elesclomol + AZD7762; first compound 0.03162 µM,0.608
same,relative viability,Elesclomol + AZD7762; first compound 0.1 µM,0.257
same,relative viability,Elesclomol + Olaparib; first compound 0.003162 µM,0.5
same,relative viability,Elesclomol + Olaparib; first compound 0.03162 µM,0.395
same,relative viability,Elesclomol + Olaparib; first compound 0.1 µM,0.169
NCI-H1437,relative viability,Elesclomol + Trametinib; first compound 0.003162 µM,0.504
same,relative viability,Elesclomol + Trametinib; first compound 0.01 µM,0.424
same,relative viability,Elesclomol + Trametinib; first compound 0.03162 µM,0.339
same,relative viability,Elesclomol + Trametinib; first compound 0.1 µM,0.275
same,relative viability,Elesclomol + Pictilisib; first compound 0.003162 µM,0.391
same,relative viability,Elesclomol + Pictilisib; first compound 0.01 µM,0.321
same,relative viability,Elesclomol + Pictilisib; first compound 0.03162 µM,0.198
same,relative viability,Elesclomol + Pictilisib; first compound 0.1 µM,0.137
same,relative viability,Elesclomol + Crizotinib; first compound 0.003162 µM,0.769
same,relative viability,Elesclomol + Crizotinib; first compound 0.01 µM,0.457
same,relative viability,Elesclomol + Crizotinib; first compound 0.03162 µM,0.504
same,relative viability,Elesclomol + Crizotinib; first compound 0.1 µM,0.329
same,relative viability,Elesclomol + AZD7762; first compound 0.003162 µM,0.938
same,relative viability,Elesclomol + AZD7762; first compound 0.01 µM,0.644
same,relative viability,Elesclomol + AZD7762; first compound 0.03162 µM,0.547
same,relative viability,Elesclomol + AZD7762; first compound 0.1 µM,0.594
same,relative viability,Elesclomol + Olaparib; first compound 0.003162 µM,0.555
same,relative viability,Elesclomol + Olaparib; first compound 0.01 µM,0.461
same,relative viability,Elesclomol + Olaparib; first compound 0.03162 µM,0.379
same,relative viability,Elesclomol + Olaparib; first compound 0.1 µM,0.359
HOP-62,relative viability,Elesclomol + Trametinib; first compound 0.003162 µM,0.397
same,relative viability,Elesclomol + Trametinib; first compound 0.01 µM,0.385
same,relative viability,Elesclomol + Trametinib; first compound 0.03162 µM,0.386
same,relative viability,Elesclomol + Trametinib; first compound 0.1 µM,0.237
same,relative viability,Elesclomol + Pictilisib; first compound 0.003162 µM,0.694
same,relative viability,Elesclomol + Pictilisib; first compound 0.01 µM,0.269
same,relative viability,Elesclomol + Pictilisib; first compound 0.03162 µM,0.582
same,relative viability,Elesclomol + Pictilisib; first compound 0.1 µM,0.239
same,relative viability,Elesclomol + Crizotinib; first compound 0.003162 µM,0.952
same,relative viability,Elesclomol + Crizotinib; first compound 0.01 µM,0.916
same,relative viability,Elesclomol + Crizotinib; first compound 0.03162 µM,0.919
same,relative viability,Elesclomol + Crizotinib; first compound 0.1 µM,0.256
same,relative viability,Elesclomol + AZD7762; first compound 0.003162 µM,0.545
same,relative viability,Elesclomol + AZD7762; first compound 0.01 µM,0.576
same,relative viability,Elesclomol + AZD7762; first compound 0.03162 µM,0.389
same,relative viability,Elesclomol + AZD7762; first compound 0.1 µM,0.104
same,relative viability,Elesclomol + Olaparib; first compound 0.003162 µM,0.487
same,relative viability,Elesclomol + Olaparib; first compound 0.01 µM,0.191
same,relative viability,Elesclomol + Olaparib; first compound 0.03162 µM,0.0744
same,relative viability,Elesclomol + Olaparib; first compound 0.1 µM,0.08
NCI-H1395,relative viability,Elesclomol + Trametinib; first compound 0.003162 µM,1.01
same,relative viability,Elesclomol + Trametinib; first compound 0.01 µM,0.626
same,relative viability,Elesclomol + Trametinib; first compound 0.03162 µM,0.294
same,relative viability,Elesclomol + Trametinib; first compound 0.1 µM,0.215
same,relative viability,Elesclomol + Pictilisib; first compound 0.003162 µM,0.65
same,relative viability,Elesclomol + Pictilisib; first compound 0.01 µM,0.324
same,relative viability,Elesclomol + Pictilisib; first compound 0.03162 µM,0.292
same,relative viability,Elesclomol + Pictilisib; first compound 0.1 µM,0.436
same,relative viability,Elesclomol + AZD7762; first compound 0.003162 µM,0.438
same,relative viability,Elesclomol + AZD7762; first compound 0.01 µM,0.431
same,relative viability,Elesclomol + AZD7762; first compound 0.03162 µM,0.226
same,relative viability,Elesclomol + AZD7762; first compound 0.1 µM,0.202
same,relative viability,Elesclomol + Olaparib; first compound 0.003162 µM,0.449
same,relative viability,Elesclomol + Olaparib; first compound 0.01 µM,0.364
same,relative viability,Elesclomol + Olaparib; first compound 0.03162 µM,0.254
same,relative viability,Elesclomol + Olaparib; first compound 0.1 µM,0.22
NCI-H1793,relative viability,Elesclomol + Trametinib; first compound 0.003162 µM,0.339
same,relative viability,Elesclomol + Trametinib; first compound 0.01 µM,0.414
same,relative viability,Elesclomol + Trametinib; first compound 0.03162 µM,0.318
same,relative viability,Elesclomol + Trametinib; first compound 0.1 µM,0.111
same,relative viability,Elesclomol + Pictilisib; first compound 0.003162 µM,0.273
same,relative viability,Elesclomol + Pictilisib; first compound 0.01 µM,0.307
same,relative viability,Elesclomol + Pictilisib; first compound 0.03162 µM,0.335
same,relative viability,Elesclomol + Pictilisib; first compound 0.1 µM,0.178
same,relative viability,Elesclomol + AZD7762; first compound 0.003162 µM,0.442
same,relative viability,Elesclomol + AZD7762; first compound 0.01 µM,0.448
same,relative viability,Elesclomol + AZD7762; first compound 0.03162 µM,0.464
same,relative viability,Elesclomol + AZD7762; first compound 0.1 µM,0.104
same,relative viability,Elesclomol + Olaparib; first compound 0.003162 µM,0.818
same,relative viability,Elesclomol + Olaparib; first compound 0.01 µM,0.692
same,relative viability,Elesclomol + Olaparib; first compound 0.03162 µM,0.386
same,relative viability,Elesclomol + Olaparib; first compound 0.1 µM,0.0938
